In ChEMBL document CHEMBL4627319, “Novel class of benzimidazole-thiazole hybrids: The privileged scaffolds of potent anti-inflammatory activity with dual inhibition of cyclooxygenase and 15-lipoxygenase enzymes” (Bioorg Med Chem, 2020):
Values belong to the compound of their own block, whether it stands above or below them.

Columns and labels:
[1] = Inhibition of soybean 15-LOX using arachidonic acid or linoleic acid as substrate preincubated for 5 mins followed by substrate addition and measured after 10 mins by colorimetric assay; set-up: species or system Glycine max
[2] = target: T1, Prostaglandin G/H synthase 1 (Ovis aries, UniProt P05979); test: Inhibition of ovine COX1 using arachidonic acid as substrate preincubated for 10 mins followed by substrate addition and measured after 2 mins by EIA
T1 sequence (P05979 whole entry): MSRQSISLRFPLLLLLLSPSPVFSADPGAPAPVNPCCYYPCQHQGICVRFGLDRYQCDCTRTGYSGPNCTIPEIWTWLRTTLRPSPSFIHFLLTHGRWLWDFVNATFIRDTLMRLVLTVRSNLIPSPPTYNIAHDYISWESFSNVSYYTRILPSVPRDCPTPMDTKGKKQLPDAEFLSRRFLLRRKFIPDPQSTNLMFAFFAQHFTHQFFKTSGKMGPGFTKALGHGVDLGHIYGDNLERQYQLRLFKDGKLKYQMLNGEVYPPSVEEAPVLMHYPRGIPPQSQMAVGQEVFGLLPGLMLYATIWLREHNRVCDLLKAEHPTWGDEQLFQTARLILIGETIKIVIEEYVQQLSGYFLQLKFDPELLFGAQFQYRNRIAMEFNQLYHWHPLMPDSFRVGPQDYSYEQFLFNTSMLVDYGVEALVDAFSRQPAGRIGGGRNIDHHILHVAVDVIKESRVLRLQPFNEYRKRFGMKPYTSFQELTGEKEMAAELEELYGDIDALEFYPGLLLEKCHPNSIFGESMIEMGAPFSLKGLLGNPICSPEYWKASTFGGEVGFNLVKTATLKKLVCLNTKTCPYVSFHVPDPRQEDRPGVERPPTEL

[3] = target: T2, Prostaglandin G/H synthase 2 (Homo sapiens, UniProt P35354); test: Inhibition of COX2 (unknown origin)
T2 sequence (P35354 whole entry): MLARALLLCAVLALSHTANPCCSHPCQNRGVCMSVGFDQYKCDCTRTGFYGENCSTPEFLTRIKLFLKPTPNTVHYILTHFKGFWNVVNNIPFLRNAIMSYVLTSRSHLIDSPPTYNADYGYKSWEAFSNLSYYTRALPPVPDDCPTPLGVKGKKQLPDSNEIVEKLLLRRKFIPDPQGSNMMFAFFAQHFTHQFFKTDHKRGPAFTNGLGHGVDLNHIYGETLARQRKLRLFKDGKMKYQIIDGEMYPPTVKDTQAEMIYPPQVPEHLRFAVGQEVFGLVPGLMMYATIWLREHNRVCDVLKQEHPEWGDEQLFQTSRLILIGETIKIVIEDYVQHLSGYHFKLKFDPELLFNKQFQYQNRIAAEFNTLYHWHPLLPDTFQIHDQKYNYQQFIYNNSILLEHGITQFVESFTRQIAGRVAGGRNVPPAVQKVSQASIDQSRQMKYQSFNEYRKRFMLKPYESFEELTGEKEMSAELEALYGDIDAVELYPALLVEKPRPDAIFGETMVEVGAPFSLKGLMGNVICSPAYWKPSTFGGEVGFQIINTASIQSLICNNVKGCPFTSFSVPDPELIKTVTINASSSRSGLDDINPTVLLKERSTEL

Rattus norvegicus [4] = test: Anti-inflammatory activity in albino rat assessed as inhibition of carrageenan-induced paw edema at 28 uM/kg, ip measured at 3 hrs by calliper method relative to control; format: functional
Rattus norvegicus [5] = test: Anti-inflammatory activity in albino rat assessed as inhibition of carrageenan-induced paw edema at 28 uM/kg, ip measured at 4 hrs by calliper method relative to control; format: functional
Rattus norvegicus [6] = test: Antiinflammatory activity in albino rat assessed as reduction in carrageenan-induced paw edema by measuring thickness of right paw at 28 uM/kg, ip measured at 4 hrs by calliper method (reference value: 8.50 +/- 0.58 cm); format: functional
[7] = Ulcerogenic activity in albino rat assessed as ulcer formation with distorted gastric gland at 10 to 50 mg/kg, po measured after 6 hrs by H and E staining based light microscopic assay; format: toxicity, organism-based; details: in vivo
Rattus norvegicus [8] = test: Antiinflammatory activity in albino rat assessed as reduction in carrageenan-induced paw edema by measuring thickness of right paw at 28 uM/kg, ip measured immediately by calliper method (reference value: 6.83 +/-0.17 cm); format: functional
[9] = Ulcerogenic activity in albino rat assessed as congestion of blood vessel at 10 to 50 mg/kg, po measured after 6 hrs by H and E staining based light microscopic assay; format: toxicity, organism-based; details: in vivo
[10] = Ulcerogenic activity in albino rat assessed as damage of gastric mucosa surface epithelium at 10 to 50 mg/kg, po measured after 6 hrs by H and E staining based light microscopic assay; format: toxicity, organism-based; details: in vivo
Rattus norvegicus [11] = test: Antiinflammatory activity in albino rat assessed as reduction in carrageenan-induced paw edema by measuring thickness of right paw at 28 uM/kg, ip measured at 1 hr by calliper method (reference value: 7.33 +/- 0.17 cm); format: functional
Rattus norvegicus [12] = test: Antiinflammatory activity in albino rat assessed as reduction in carrageenan-induced paw edema by measuring thickness of right paw at 28 uM/kg, ip measured at 3 hrs by calliper method (reference value: 7.83 +/- 0.33 cm); format: functional
Rattus norvegicus [13] = test: Anti-inflammatory activity in albino rat assessed as inhibition of carrageenan-induced paw edema at 28 uM/kg, ip measured at 0.5 hrs by calliper method relative to control; format: functional
Rattus norvegicus [14] = test: Anti-inflammatory activity in albino rat assessed as inhibition of carrageenan-induced paw edema at 28 uM/kg, ip measured at 1 hr by calliper method relative to control; format: functional
Rattus norvegicus [15] = test: Antiinflammatory activity in albino rat assessed as reduction in carrageenan-induced paw edema by measuring thickness of right paw at 28 uM/kg, ip measured at 2 hrs by calliper method (reference value: 7.67 +/- 0.17 cm); format: functional
Rattus norvegicus [16] = test: Antiinflammatory activity in albino rat assessed as reduction in carrageenan-induced paw edema by measuring thickness of right paw at 28 uM/kg, ip measured at 0.5 hrs by calliper method (reference value: 7.33 +/- 0.17 cm); format: functional
Rattus norvegicus [17] = test: Anti-inflammatory activity in albino rat assessed as inhibition of carrageenan-induced paw edema at 28 uM/kg, ip measured at 2 hrs by calliper method relative to control; format: functional
[18] = Ulcerogenic activity in albino rat assessed as damage of scarred mucosal epithelium at 10 to 50 mg/kg, po measured after 6 hrs by H and E staining based light microscopic assay; format: toxicity, organism-based; details: in vivo
Rattus norvegicus [19] = test: Anti-inflammatory activity in albino rat assessed as inhibition of carrageenan-induced paw edema at 28 uM/kg, ip measured at 4 hrs by calliper method relative to indomethacin; format: functional; set-up: scale not given: the % may be the effect or the level left
Rattus norvegicus [20] = test: Anti-inflammatory activity in albino rat assessed as inhibition of carrageenan-induced paw edema at 28 uM/kg, ip measured at 3 hrs by calliper method relative to indomethacin; format: functional; set-up: scale not given: the % may be the effect or the level left
[21] = target: Prostaglandin G/H synthase 1 (Homo sapiens, UniProt P23219); test: Inhibition of human COX1 expressed in CHO cells assessed as reduction in arachidonic acid-stimulated PGE2 production; format: cell-based
Prostaglandin G/H synthase 1 (Homo sapiens, UniProt P23219), sequence (P23219 whole entry): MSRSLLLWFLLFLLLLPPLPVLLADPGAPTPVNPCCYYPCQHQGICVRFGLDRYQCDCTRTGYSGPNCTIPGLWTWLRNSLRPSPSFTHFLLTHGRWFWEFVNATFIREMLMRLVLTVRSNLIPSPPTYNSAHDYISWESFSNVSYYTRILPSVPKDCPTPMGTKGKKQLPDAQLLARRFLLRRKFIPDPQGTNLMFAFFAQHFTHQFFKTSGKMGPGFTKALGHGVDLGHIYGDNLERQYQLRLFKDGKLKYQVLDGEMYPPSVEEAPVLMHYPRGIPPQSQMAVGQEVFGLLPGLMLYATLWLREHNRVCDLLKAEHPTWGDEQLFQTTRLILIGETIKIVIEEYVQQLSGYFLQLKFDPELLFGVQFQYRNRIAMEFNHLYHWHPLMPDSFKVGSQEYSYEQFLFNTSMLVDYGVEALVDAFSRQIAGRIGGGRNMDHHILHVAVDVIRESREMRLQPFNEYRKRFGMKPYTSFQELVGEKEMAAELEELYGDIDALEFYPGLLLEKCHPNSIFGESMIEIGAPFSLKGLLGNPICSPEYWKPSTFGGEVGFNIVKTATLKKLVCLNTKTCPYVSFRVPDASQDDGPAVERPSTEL

[22] = Ulcerogenic activity in albino rat assessed as effect on gastric mucosa membrane at 10 to 50 mg/kg, po measured after 6 hrs by H and E staining based light microscopic assay; format: toxicity, organism-based; details: in vivo

Compound: CCn1c(-n2cc(/C=N/N=c3\scc(-c4ccc(Br)cc4)n3-c3ccccc3)c(-c3ccc(OC)cc3)n2)nc2c1c(=O)n(C)c(=O)n2C
IC50 [1]: 1.82 µM

Compound: CSc1nc2ccccc2n1-c1csc(NCC(C)=O)n1
IC50 [2]: 11.7 µM
IC50 [1]: 2.93 µM

Compound: CCn1c(-n2cc(/C=N/N=C3/NC(=O)CS3)c(-c3ccc(OC)cc3)n2)nc2c1c(=O)n(C)c(=O)n2C
IC50 [1]: 1.98 µM

Compound: O=[N+]([O-])c1ccc(-c2nnc(Cn3c(CN4CCCCC4)nc4ccccc43)o2)cc1
IC50 [3]: 0.06 to 0.81 µM

Compound: CSc1nc2ccccc2n1-c1csc(NC/C(C)=N/N=c2\scc(-c3ccccc3)n2-c2ccccc2)n1
IC50 [2]: 12.4 µM
IC50 [1]: 1.85 µM

Compound: COc1ccc2c(c1)c(CC(=O)O)c(C)n2C(=O)c1ccc(Cl)cc1 [INDOMETHACIN]
inhibition (INH) (Rattus norvegicus [4]): 69.37%
inhibition (INH) (Rattus norvegicus [5]): 78.83%
Activity (Rattus norvegicus [6]): 4.17 cm
Activity [7]: Toxic
Activity (Rattus norvegicus [8]): 7.17 cm
Activity [9]: Toxic
Activity [10]: Toxic
Activity (Rattus norvegicus [11]): 5 cm
Activity (Rattus norvegicus [12]): 4.5 cm
inhibition (INH) (Rattus norvegicus [13]): 34.7%
inhibition (INH) (Rattus norvegicus [14]): 54.17%
Activity (Rattus norvegicus [15]): 4.67 cm
Activity (Rattus norvegicus [16]): 5.83 cm
inhibition (INH) (Rattus norvegicus [17]): 63.7%
Activity [18]: Toxic

Compound: O=c1c(O)c(-c2ccc(O)c(O)c2)oc2cc(O)cc(O)c12 [QUERCETIN]
IC50 [1]: 3.34 µM

Compound: Fc1ccccc1-c1nnc(Cn2c(CN3CCCCC3)nc3ccccc32)o1
IC50 [3]: 0.06 to 0.81 µM

Compound: CSc1nc2ccccc2n1-c1csc(N)n1
IC50 [2]: 4.17 µM
IC50 [1]: 6.56 µM

Compound: CSc1nc2ccccc2n1-c1csc(NC/C(C)=N/N=c2\scc(-c3ccc(Cl)cc3)n2-c2ccccc2)n1
inhibition (INH) (Rattus norvegicus [4]): 75.67%
Activity (Rattus norvegicus [6]): 5.67 cm
IC50 [2]: 13.2 µM
Activity (Rattus norvegicus [8]): 7.17 cm
Activity (Rattus norvegicus [19]): 93.2%
Activity (Rattus norvegicus [11]): 5.33 cm
Activity (Rattus norvegicus [12]): 4.67 cm
inhibition (INH) (Rattus norvegicus [13]): 22.67%
inhibition (INH) (Rattus norvegicus [14]): 46.27%
Activity (Rattus norvegicus [20]): 109.08%
Activity (Rattus norvegicus [15]): 5 cm
Activity (Rattus norvegicus [16]): 6.33 cm
inhibition (INH) (Rattus norvegicus [17]): 56.67%
IC50 [1]: 1.67 µM

Compound: Fc1ccc(-c2nnc(Cn3c(CN4CCCCC4)nc4ccccc43)o2)cc1
IC50 [3]: 0.06 to 0.81 µM

Compound: CCn1c(-n2cc(/C=N/N=c3\[nH]c(-c4ccc(Br)cc4)cs3)c(-c3ccc(OC)cc3)n2)nc2c1c(=O)n(C)c(=O)n2C
IC50 [1]: 1.76 µM

Compound: CSc1nc2ccccc2n1-c1csc(NC/C(C)=N/N=c2\scc(-c3ccc(C)cc3)n2-c2ccccc2)n1
IC50 [2]: 13.2 µM
IC50 [1]: 2.14 µM

Compound: O=C1N/C(=N\c2nnc(-c3ccc(O)cc3)s2)S/C1=C\c1ccc(Cl)c(Cl)c1
IC50 [1]: 11.9 µM

Compound: Clc1ccc(-c2nnc(Cn3c(CN4CCCCC4)nc4ccccc43)o2)cc1
IC50 [3]: 0.06 to 0.81 µM

Compound: CS(=O)(=O)c1ccc(-c2c(-c3ccccc3)nc3sccn23)cc1
IC50 [21]: > 50 µM

Continued, in another order:

IC50 [2]: 9.84 µM
IC50 [1]: 3.98 µM
Compound: CSc1nc2ccccc2n1-c1csc(=N)n1CC(=O)c1ccccc1

IC50 [2]: 8.14 µM
IC50 [1]: 4.15 µM
Compound: CSc1nc2ccccc2n1-c1csc(NCC(=O)c2ccc(Cl)cc2)n1

IC50 [2]: 6.23 µM
IC50 [1]: 4.96 µM
Compound: CSc1nc2ccccc2n1-c1csc(NC(=O)c2ccc(C)cc2)n1

IC50 [2]: 7.11 µM
IC50 [1]: 5.11 µM
Compound: CSc1nc2ccccc2n1-c1csc(NC(=O)c2ccc(Cl)cc2)n1

IC50 [2]: 10.7 µM
IC50 [1]: 2.98 µM
Compound: CSc1nc2ccccc2n1-c1csc(NC/C(C)=N/NC(=S)Nc2ccccc2)n1
inhibition (INH) (Rattus norvegicus [4]): 70.97%
inhibition (INH) (Rattus norvegicus [5]): 68.8%
Activity (Rattus norvegicus [6]): 5.5 cm
Activity (Rattus norvegicus [8]): 7.33 cm
Activity (Rattus norvegicus [19]): 87.28%
Activity (Rattus norvegicus [11]): 5 cm
Activity (Rattus norvegicus [12]): 4.83 cm
inhibition (INH) (Rattus norvegicus [13]): 38.43%
inhibition (INH) (Rattus norvegicus [14]): 53.73%
Activity (Rattus norvegicus [20]): 102.31%
Activity (Rattus norvegicus [15]): 4.67 cm
Activity (Rattus norvegicus [16]): 5.67 cm
inhibition (INH) (Rattus norvegicus [17]): 64.1%

IC50 [2]: 5.33 µM
IC50 [1]: 4.12 µM
Compound: CSc1nc2ccccc2n1-c1csc(NC(=O)c2ccccc2)n1

IC50 [2]: 5.97 µM
IC50 [1]: 5.46 µM
Compound: CSc1nc2ccccc2n1-c1csc2nc(-c3ccccc3)cn12

IC50 [2]: 10.6 µM
IC50 [1]: 1.96 µM
Compound: CSc1nc2ccccc2n1-c1csc(NC/C(C)=N/N=C2\SCC(=O)N2c2ccccc2)n1
inhibition (INH) (Rattus norvegicus [4]): 82.83%
inhibition (INH) (Rattus norvegicus [5]): 80.57%
Activity (Rattus norvegicus [6]): 4.5 cm
Activity (Rattus norvegicus [8]): 7 cm
Activity [9]: Toxic
Activity (Rattus norvegicus [19]): 102.21%
Activity (Rattus norvegicus [11]): 4.67 cm
Activity (Rattus norvegicus [12]): 3.83 cm
inhibition (INH) (Rattus norvegicus [13]): 38.4%
inhibition (INH) (Rattus norvegicus [14]): 61.6%
Activity [22]: Non-Toxic
Activity (Rattus norvegicus [20]): 119.4%
Activity (Rattus norvegicus [15]): 4.17 cm
Activity (Rattus norvegicus [16]): 5.67 cm
inhibition (INH) (Rattus norvegicus [17]): 74.83%
